From patent US11464749B2, “Bismuth-thiol compositions and methods of use” (Microbion Corporation, priority 2018, dated 2022)
Where two headings read alike, the source gives them in different places.

Legend:
E. faecalis = experiment: Broth microdilution MIC (Example 11); conditions: Enterococcus faecalis, VRE, E. faecalis MMX 8962; VRE Lev^R Cip^R Ery^R
[1] = system: Staphylococcus aureus (MRSA); experiment: Broth microdilution MIC (Example 11)
Escherichia coli = experiment: Broth microdilution MIC (Example 12)
Klebsiella pneumoniae = experiment: Broth microdilution MIC (Example 12)
Acinetobacter baumannii = experiment: Broth microdilution MIC (Example 12)
[2] = system: vancomycin-intermediate Staphylococcus aureus (VISA); experiment: Broth microdilution MIC (Example 12)
Pseudomonas aeruginosa = experiment: Broth microdilution MIC (Example 12)
S. agalactiae = experiment: Broth microdilution MIC (Example 11); conditions: Streptococcus agalactiae
S. pyogenes = experiment: Broth microdilution MIC (Example 11); conditions: Streptococcus pyogenes
S. pneumoniae = experiment: Broth microdilution MIC (Example 11); conditions: Streptococcus pneumoniae
[3] = MRSA, S. aureus MMX 6311, MRSA Lev^R Cip^R CC^R Ery^R Ox^R
[4] = E. coli ATCC 35218, QC organism (Table 102)
[5] = K. pneumoniae ATCC BAA-1705, ESBL/KPC
[6] = K. pneumoniae ATCC BAA-1705, QC organism (Table 102)
[7] = K. pneumoniae CDC 113, ESBL/KPC
[8] = K. pneumoniae CDC 115, ESBL/KPC
[9] = K. pneumoniae CDC 120, ESBL/KPC
[10] = K. pneumoniae CDC 126, ESBL/KPC
[11] = K. pneumoniae CDC 129, ESBL/KPC
[12] = K. pneumoniae CDC 135, ESBL/VIM
[13] = K. pneumoniae CDC 138, ESBL/NDM
[14] = K. pneumoniae CDC 158, ESBL/NDM/OXA
[15] = P. aeruginosa CDC 516, KPC/AmpC
[16] = P. aeruginosa CDC 518, KPC/AmpC

Measured: MIC

Cc1onc(-c2ccccc2)c1C(=O)N[C@@H]1C(=O)N2[C@@H]1SC(C)(C)[C@@H]2C(=O)O [Oxacillin]
16 µg/mL: E. faecalis
32 µg/mL: [1]; [3]

C[C@H]1COc2c(N3CCN(C)CC3)c(F)cc3c(=O)c(C(=O)O)cn1c23 [LVX]
≤0.008 µg/mL: Escherichia coli; E. coli ATCC 35218, ESBL | Escherichia coli; [4]
4 µg/mL: Escherichia coli; E. coli CDC 114, ESBL/KPC | Escherichia coli; E. coli MMX 5756, ESBL | Klebsiella pneumoniae; K. pneumoniae CDC 112, KPC | Klebsiella pneumoniae; [7] | Klebsiella pneumoniae; [14] | Acinetobacter baumannii; A. baumannii CDC 275, ESBL/OXA | Acinetobacter baumannii; A. baumannii CDC 308, ESBL/OXA | [2]; S. aureus NRS 1 (hVISA) | [2]; S. aureus NRS 2 | [2]; S. aureus NRS 4 | [2]; S. aureus NRS 18
8 µg/mL: Escherichia coli; E. coli CDC 118, ESBL/NDM | Escherichia coli; E. coli MMX 5745, KPC | Escherichia coli; E. coli MMX 5755, ESBL | Escherichia coli; E. coli MMX 5758, ESBL | Acinetobacter baumannii; A. baumannii CDC 274, ESBL/OXA | Acinetobacter baumannii; A. baumannii CDC 277, ESBL/OXA | Acinetobacter baumannii; A. baumannii CDC 284, ESBL/OXA | Acinetobacter baumannii; A. baumannii CDC 307, OXA | [2]; S. aureus NRS 22 | [2]; S. aureus NRS 27 | Pseudomonas aeruginosa; P. aeruginosa CDC 230, VIM/OXA | Pseudomonas aeruginosa; P. aeruginosa CDC 241, IMP/OXA | Pseudomonas aeruginosa; P. aeruginosa CDC 439, IMP | Pseudomonas aeruginosa; P. aeruginosa CDC 444, VIM
0.25 µg/mL: Pseudomonas aeruginosa; [15]
0.12 µg/mL: Klebsiella pneumoniae; K. pneumoniae MMX 9029, ESBL | [2]; S. aureus NRS 13 | Pseudomonas aeruginosa; P. aeruginosa CDC 356, KPC
>8 µg/mL: Escherichia coli; E. coli ATCC BAA-2471, NDM | Escherichia coli; E. coli CDC 435, NDM | Escherichia coli; E. coli CDC 451, KPC | Escherichia coli; E. coli CDC 503, ESBL/NDM | Klebsiella pneumoniae; [5] | Klebsiella pneumoniae; [6] | Klebsiella pneumoniae; [8] | Klebsiella pneumoniae; [9] | Klebsiella pneumoniae; [11] | Klebsiella pneumoniae; [12] | Klebsiella pneumoniae; [13] | Acinetobacter baumannii; A. baumannii CDC 273, ESBL/OXA | [2]; S. aureus NRS 3 | [2]; S. aureus NRS 24 (hVISA) | Pseudomonas aeruginosa; P. aeruginosa CDC 231, KPC/OXA | Pseudomonas aeruginosa; P. aeruginosa CDC 246, NDM/OXA | Pseudomonas aeruginosa; P. aeruginosa CDC 250, NDM/OXA | Pseudomonas aeruginosa; P. aeruginosa CDC 457, VIM | Pseudomonas aeruginosa; [16]
2 µg/mL: Acinetobacter baumannii; A. baumannii CDC 311, OXA | Acinetobacter baumannii; A. baumannii CDC 312, OXA | Acinetobacter baumannii; A. baumannii CDC 313, ESBL/OXA
1 µg/mL: Acinetobacter baumannii; A. baumannii NCTC 13304, OXA
0.015 µg/mL: Klebsiella pneumoniae; [10]

CC(C)(O/N=C(\C(=O)N[C@@H]1C(=O)N2C(C(=O)[O-])=C(C[n+]3ccccc3)CS[C@H]12)c1csc(N)n1)C(=O)O [CAZ]
16 µg/mL: Escherichia coli; E. coli MMX 5758, ESBL
64 µg/mL: Escherichia coli; E. coli CDC 451, KPC | Acinetobacter baumannii; A. baumannii CDC 273, ESBL/OXA | Acinetobacter baumannii; A. baumannii CDC 284, ESBL/OXA | Acinetobacter baumannii; A. baumannii CDC 307, OXA | Acinetobacter baumannii; A. baumannii CDC 308, ESBL/OXA | Pseudomonas aeruginosa; P. aeruginosa CDC 230, VIM/OXA | Pseudomonas aeruginosa; P. aeruginosa CDC 356, KPC | Pseudomonas aeruginosa; [15]
>64 µg/mL: Escherichia coli; E. coli ATCC BAA-2471, NDM | Escherichia coli; E. coli CDC 114, ESBL/KPC | Escherichia coli; E. coli CDC 118, ESBL/NDM | Escherichia coli; E. coli CDC 435, NDM | Escherichia coli; E. coli CDC 503, ESBL/NDM | Escherichia coli; E. coli MMX 5755, ESBL | Escherichia coli; E. coli MMX 5756, ESBL | Klebsiella pneumoniae; [5] | Klebsiella pneumoniae; [6] | Klebsiella pneumoniae; K. pneumoniae CDC 112, KPC | Klebsiella pneumoniae; [7] | Klebsiella pneumoniae; [8] | Klebsiella pneumoniae; [9] | Klebsiella pneumoniae; [11] | Klebsiella pneumoniae; [12] | Klebsiella pneumoniae; [13] | Klebsiella pneumoniae; [14] | Acinetobacter baumannii; A. baumannii CDC 274, ESBL/OXA | Acinetobacter baumannii; A. baumannii CDC 275, ESBL/OXA | Acinetobacter baumannii; A. baumannii CDC 277, ESBL/OXA | Acinetobacter baumannii; A. baumannii CDC 311, OXA | Acinetobacter baumannii; A. baumannii CDC 312, OXA | Acinetobacter baumannii; A. baumannii CDC 313, ESBL/OXA | Acinetobacter baumannii; A. baumannii NCTC 13304, OXA | Pseudomonas aeruginosa; P. aeruginosa CDC 231, KPC/OXA | Pseudomonas aeruginosa; P. aeruginosa CDC 241, IMP/OXA | Pseudomonas aeruginosa; P. aeruginosa CDC 246, NDM/OXA | Pseudomonas aeruginosa; P. aeruginosa CDC 250, NDM/OXA | Pseudomonas aeruginosa; P. aeruginosa CDC 439, IMP | Pseudomonas aeruginosa; P. aeruginosa CDC 457, VIM
4 µg/mL: Klebsiella pneumoniae; [10] | Klebsiella pneumoniae; K. pneumoniae MMX 9029, ESBL
0.12 µg/mL: Escherichia coli; E. coli ATCC 35218, ESBL | Escherichia coli; [4]
32 µg/mL: Escherichia coli; E. coli MMX 5745, KPC | Pseudomonas aeruginosa; P. aeruginosa CDC 444, VIM | Pseudomonas aeruginosa; [16]

CN[C@H](CC(C)C)C(=O)N[C@H]1C(=O)N[C@@H](CC(N)=O)C(=O)N[C@H]2C(=O)N[C@H]3C(=O)N[C@H](C(=O)N[C@H](C(=O)O)c4cc(O)cc(O)c4-c4cc3ccc4O)[C@H](O)c3ccc(c(Cl)c3)Oc3cc2cc(c3O[C@@H]2O[C@H](CO)[C@@H](O)[C@H](O)[C@H]2O[C@H]2C[C@](C)(N)[C@H](O)[C@H](C)O2)Oc2ccc(cc2Cl)[C@H]1O [vancomycin]
1 µg/mL: S. agalactiae; S. agalactiae MMX 4086, ERY^R CC^R | [1]; ATCC29213|MRSA|MSSA, S. aureus MMX 101 (ATCC 29213), QC, MSSA | [1]; MRSA, S. aureus MMX 9204, MRSA Lev^R Cip^R Ery^R Ox^R
0.25 µg/mL: [1]; [3] | S. pneumoniae; ATCC49619, S. pneumoniae MMX 6837 (ATCC 49619), QC | S. pneumoniae; S. pneumoniae MMX 5440, Mem^R SXT^R CC^R Ery^R Pen^R | S. pneumoniae; S. pneumoniae MMX 5445, Mem^R SXT^R CC^R Ery^R Pen^R | S. pneumoniae; S. pneumoniae MMX 8133, Mem^R SXT^R CC^R Ery^R Pen^R
0.5 µg/mL: S. agalactiae; S. agalactiae MMX 3741, ERY^R CC^R | S. agalactiae; S. agalactiae MMX 3743, ERY^R CC^R | S. agalactiae; S. agalactiae MMX 4077, ERY^R CC^R | S. pyogenes | S. pneumoniae; S. pneumoniae MMX 880, Lev^R SXT^R CC^R Ery^R Pen^R | S. pneumoniae; S. pneumoniae MMX 937, Mem^R SXT^R CC^R Ery^R Pen^R | S. pneumoniae; S. pneumoniae MMX 3959, CC^R Ery^R
2 µg/mL: S. agalactiae; S. agalactiae MMX 4079, ERY^R CC^R Pen^R MEM^R | [2]; Staphylococcus aureus, NRS13 / VISA, read-out: MIC values | [1]; MRSA, S. aureus MMX 5373, MRSA Lev^R Cip^R CC^R Ery^R Ox^R | [1]; MRSA, S. aureus MMX 9203, MRSA Lev^R Cip^R Ery^R Ox^R | [1]; MRSA, S. aureus MMX 9205, MRSA Lev^R Cip^R CC^R Ery^R Ox^R
